Measurements reported in US20240408114A1, “METHODS FOR PREVENTING AND TREATING ACUTE KIDNEY INJURY” (The Johns Hopkins University, priority 2021, published 2024).

Legend:
[1] = tested on: kidney T cells; assay: T cell phenotypes in normal steady-state kidneys; type: in vivo, mouse; conditions: normal mice, same dosage schedule; vs vehicle
Experimental: To test whether this immunologic effect was derived from the glutamine blockade or attenuated kidney injury, we studied normal mice treated with JHU083 or vehicle with the same dosage schedule. […] Therefore, changes seen in these markers in post-ischemic kidneys are likely through JHU083-mediated glutamine blockade.
KMNCs were isolated according to our previously described Percoll density gradient protocol. Ascon et al., 2006. Briefly, decapsulated kidneys were immersed and incubated in collagenase D (2 mg/mL; Sigma-Aldrich) solution for 30 min at 37° C. Samples were strained through 70 µm cell strainer (BD Bioscience, Franklin Lakes, NJ), washed, and resuspended in 40% Percoll (GE Healthcare, Chicago, IL) followed by gentle overlaying onto 80% Percoll. After centrifugation at 1,500 g for 30 min in brake off mode at room temperature, KMNCs were collected from interface between 40% and 80% Percoll. […] Cells were counted on hemocytometer using trypan blue exclusion under a microscope.
Cells were washed once with phosphate buffered saline (PBS) and stained with viability dye Zombie NIR Fixable Viability (BioLegend, San Diego, CA) for 15 min at room temperature. […] Samples were analyzed by 4-laser Aurora spectral flow cytometer (Cytek, Fremont, CA). […]

[2] = tested on: splenic T cells; assay: In vitro hypoxia/reoxygenation of CD3/CD28 stimulated splenic T cells; type: cell-based, mouse
Experimental: In vitro studies were performed to evaluate the effect of glutamine blockade on activated T cells under hypoxia followed by reoxygenation. Splenic T cells (CD45^+, TCR αβ^+) were isolated and cultured using media containing 0.25 μM, 0.5 μM, or 1 μM of JHU083 or vehicle. After 24 h from the culture under CD3/CD28 stimulation, cells were exposed to hypoxia for 24 h followed by reoxygenation.
(§1) Kidney T cells were isolated using FACS. Briefly, single-cell suspension of KMNCs was preincubated with anti-CD16/CD32 Fc block (S17011E, BioLegend) stained in Cell Staining Buffer (BioLegend) with fluorochrome-labeled antibodies: APC-Cy7 anti-CD45 (30-F11) and BV421 anti-TCRβ ([…]) from BioLegend. Live Dead Aqua (Thermo Fisher Scientific) was stained for viability assay. […] TCRβ^+ cells were sorted with FACSAria II Cell Sorter (BD Bioscience). Splenic T cells were isolated from single cells suspension of spleens using a T Cell Isolation Kit II (Miltenyi Biotec, North Rhine-Westphalia, Germany) according to the manufacturer's guideline.
48-well flat-bottom plates were coated with 5-μg/mL anti-CD3 in PBS and incubated at 4° C. overnight. […]

[3] = tested on: kidney T cells; assay: In vitro kidney T cell proliferation (CFSE) under hypoxia/reoxygenation; type: cell-based, mouse; conditions: 1 μM JHU083, hypoxia followed by reoxygenation
Experimental: Glutamine blocking effect on the kidney T cell proliferation was assessed with carboxyfluoroscein succinimidyl ester (CFSE) analysis. FACS sorted kidney T cells (CD45^+, TCR αβ^+) were cultured with media containing 1 μM JHU083 or vehicle and underwent hypoxia followed by reoxygenation.
as §1
48-well flat-bottom plates were coated with 5-μg/mL anti-CD3 in PBS and incubated at 4° C. overnight. Anti-CD3 coated plates were washed with PBS, and isolated cells were cultured in RPMI 1640 GlutaMAX (Thermo Fisher Scientific) supplemented with 10% FBS (Thermo Fisher Scientific), […] HEPES buffer (Thermo Fisher Scientific), 100-μM non-essential amino acid solution (Sigma-Aldrich), and 55-μM 2-mercaptoethanol (Sigma-Aldrich)±JHU083. […]

With `CCOC(=O)[C@H](CCC(=O)C=[N+]=[N-])NC(=O)[C@@H](N)CC(C)C` [JHU083] as the molecule, how does the “phenotype of CD4+ and CD8+ T cells in steady-state kidneys” value [1] read?
Its value is “skewed toward naïve phenotypes with lower CD69, CD44, and Ki67 and higher CD62L”.

And the “expression of activation and proliferation markers (CD44, CD69, CD25, Ki67)” value ([2]; 0.25 μM, 0.5 μM, or 1 μM JHU083, 24 h hypoxia followed by reoxygenation, dose-dependent, vs vehicle)?
Its value is “reduced expression of activation and proliferation markers”.

And the “metabolic profiles of treated T cells” value ([2]; CD3/CD28 stimulation, hypoxia/reoxygenation, FIG. 18B)?
The value was “exhibited unstimulated T cell phenotypes”.

And the “cell numbers on day 3” value [3]?
Its value is “significantly lower”.

What about the “proportion of undivided cells (CFSE)” value ([3]; P<0.001) of the same molecule?
Its value is “significantly higher proportion of undivided cells”.
